melting point [°C] | Structure (SMILES)
116 to 118 | CCOC(=O)CCc1cn(-c2ccccc2)nc1O
64 to 66 | Cc1ncc(CCCOc2c(C)cc(C#N)cc2C)s1
145 to 146 | NC(=O)c1cc2c(cc1OCC1CCCCC1)OCCC[C@@H]2N
103 to 106 | COc1cc(C)c(C(=O)c2c(OC)cncc2C(F)(F)F)c(OC)c1OC
149 | Cc1cccc(C)c1NC(=O)CN1CCN(Cc2ccccc2)CC1C(C)O (stereo unspecified)
215 to 218 | OCc1ccc2nc3c(cc2c1)-c1cccc2cccc-3c12
30 to 32 | CC(=O)c1noc2ccccc12
175 to 176 | Cc1cccc(-c2csc(N3CCN(C(=O)Nc4onc(C)c4C)CC3)n2)c1
115 to 117 | CCCCNS(=O)(=O)c1ccc(OC)c(NC(C)=O)c1
288 to 289 | O=C(O)c1cn2c(ccc3ccc(Cl)cc32)n1
128 | CS(=O)(=O)NCCCC(c1cc(F)ccc1F)S(=O)(=O)c1ccc(Cl)cc1 (stereo unspecified)
81 to 84 | COc1ccc(Oc2ccc(OC(=O)N3CCC(C)CC3)cc2)cc1
169 to 173 | O=C(CO)N1CCN(C(=O)CO)CC1
113 to 115 | CN1CC(C(C#N)(c2ccccc2)c2ccccc2)C1
110 to 113 | CS(=O)(=O)NCC(=O)CCN1CCC(C2c3ncc(Br)cc3CCc3cc(Cl)cc(Cl)c32)CC1 (single isomer, unassigned; (+))
55 to 57 | C[Si](C)(C)C#Cc1c(F)c(F)c(F)c(C#C[Si](C)(C)C)c1F
70 to 72 | CCCc1ccc(-c2ncccc2S(=O)(=O)Nc2ncc(C)nc2OC)cc1
174 to 175 | CC(C)(OCc1nn(Cc2ccccc2)c2ccccc12)C(=O)NNC(N)=O
175 to 176 | O=C1Nc2c(Cl)cc(Cl)cc2C12CCCC2
187 to 192 | O=C1NCN2c3ccccc3Sc3cccc1c32
198 to 203 | COC(=O)CCCCCCCC(=O)Nc1c(I)c(C(=O)O)c(I)c(N(C)C(C)=O)c1I
50 to 53 | C=CCCCCCCOc1ccc(CCC(NC(C)=O)(C(=O)OCC)C(=O)OCC)cc1
27 to 29 | COC(=O)c1cccc(C)c1N
64 to 65 | CCOC(=O)CCN=c1sc2ccc(Cl)cc2s1
229 to 230 | O=C(C1CCN(S(=O)(=O)c2ccc3cc(Br)ccc3c2)CC1)N1CCN(c2ccncc2)CC1

melting point [°C] | Structure (SMILES)
120 to 121 | Cn1c(=O)sc2cc(C(=O)CSCCC(=O)O)c(Cl)cc21
156 to 158 | NC(=O)c1snc(Cl)c1Cl
156 to 159 | O=C1CN2C(=O)C(c3ccccc3)c3cc(Cl)cc(c32)N1 (stereo unspecified)
250 to 251 | CCC1=C(C)C(=O)NC1=CBr
116 to 118 | NC(CC(=O)NC1CC1)C1CC1 (stereo unspecified)
36 to 38 | CC(=O)c1cc(Cl)ccc1NS(=O)(=O)C(F)(F)F
> 250 | Cc1cccc(-c2cc(C(F)(F)F)cc3c2OC(CN)C3)c1 (stereo unspecified)
138 to 140 | COc1ccccc1CNc1cccc(-c2ccnc3c(C(=O)c4cccs4)cnn23)c1
89 to 92 | COc1ccnc(C(=O)N[C@H]2COC[C@H](CC3CCCCC3)[C@@H](OCC(C)C)[C@H](C)OC2=O)c1O
219 to 222 | CCOC(=O)c1cn2c3c(cc(N(C)C)cc3c1=O)CCC2C (stereo unspecified)
186 to 188 | CC1(C)CN2C(=O)c3ccccc3C(O)(c3ccccc3)C2=N1 (stereo unspecified)
133 to 134 | NC1=C(C(=O)c2cccs2)C2=C(CCC2)S1=O (stereo unspecified)
101 to 103 | CC(C)CCN1C(=O)C2(COc3cc(O)ccc32)c2ccccc21 (stereo unspecified)
158 to 160 | Fc1cc(-n2cc(CNC(=S)c3ccccn3)nn2)ccc1N1CCSCC1
119 to 122 | Cc1nc2scc(-c3ccc(F)cc3)n2c(=O)c1CCN1CCC(c2noc3cc(F)ccc23)CC1
252 to 253 | O=C(O)c1ccc(COCc2csc3nc(C(=O)NCc4ccc(Cl)c(Cl)c4)[nH]c(=O)c23)cc1
144 | CC(C)CNC(=S)Nc1cc(Cl)cc(Cl)c1
85 to 86 | OCc1nn(Cc2ccccc2)c2ccccc12
161 to 162 | CC(C)(C)c1ccc(N(c2ccc(-c3ccc(Nc4ccccc4)cc3)cc2)c2ccc(C(C)(C)C)cc2)cc1
176 | C=CCc1cn(C2OC(CO)C(O)C2O)c(=O)nc1N (stereo unspecified)
52 to 54.5 | CCCC(=Cc1ccsc1)[N+](=O)[O-]
210 to 211 | N#Cc1cnc(Nc2ccc(CCn3ccnc3)cc2)nc1-c1ccccc1
130 to 131 | Fc1cc(F)c2nc(CCC#Cc3ccccn3)cn2c1
152 to 153 | CCCCCCCCCCCCc1c[nH]c(C(=O)O)c1
169 | OC1CSC(Oc2cncc(-c3ccccc3)c2)C(O)C1O (stereo unspecified)

melting point [°C] | Structure (SMILES)
118 to 119 | COC(=O)c1cc(Cl)c(NC(C)=O)cc1OC1CCOC1=O (stereo unspecified)
103 to 104 | COc1c(C)cc2c(c1C)C(C)(C)CN2C(=O)C(C)(C)C
159 | CC(=NN)c1ccc2c(c1)C(C(Cl)(Cl)Cl)OC(C(Cl)(Cl)Cl)O2 (stereo unspecified)
129 to 137 | CCN(CC)OC(=O)c1cc(C(C)(C)C)c(O)c(C(C)(C)C)c1
264 | Cn1cc(-c2cc(-c3cnc4[nH]ccc4c3)ccn2)n(-c2ccccc2)c1=O
163 to 165 | O=C(O)CCCOc1ccc(C2C3CC4CC(C3)CC2C4)cc1 (stereo unspecified)
197 to 198 | COc1cc2c(Oc3ccc(Cl)cc3F)ncnc2cc1OCc1ccncc1
104 | COC1C(O)C(COC(c2ccccc2)(c2ccccc2)c2ccccc2)OC(Oc2ccc([N+](=O)[O-])cc2)C1O (stereo unspecified)
145 to 146 | Cc1oc(-c2ccccc2)nc1CCC(O)c1ccc(CCC2OC(=O)NC2=O)cc1 (stereo unspecified)
176 to 178 | Clc1ccccc1-c1cc(-c2ccccc2)c(-c2ccccc2Cl)nn1
166 to 168 | O=C(O)C1=Cc2cc(Cl)cc(Cl)c2OC1C(F)(F)F (stereo unspecified)
213 to 214 | NC(=O)c1c(Cl)cn2c1CN(S(=O)(=O)c1ccc(-c3ccccn3)s1)CC2
232 to 235 | O=C(O)c1cn(C2CC2F)c2c(F)c(F)c(F)cc2c1=O (stereo unspecified)
90 to 92 | Fc1cc(Cl)c(OCC2=CCCOC2)cc1-n1nc2c(c1Cl)CCCC2
238 to 239 | O=C(Nc1cccnn1)N1CCN(c2nccc(-c3cccc(F)c3)n2)CC1
55 to 60 | COc1sc(C)c(CO)c1C
163 to 165 | COC(=O)c1ccc(Cn2c(=O)c(C)c3sc(C(=O)NCc4ccc(OC)cc4)cn3c2=O)cc1
109 | CCC(C)C(C(=O)O)N1C(=O)C2C3C=CC(C3)C2C1=O (stereo unspecified)
224 to 226 | O=C(O)C1=Cc2cccc(Cl)c2OC1C(F)(F)F (stereo unspecified)
200 to 202 | CCOC(=O)c1cn(-c2ccc(F)cc2F)c2nc(N3CCC(N)C3)c(F)cc2c1=O (stereo unspecified)
93 to 99 | CSCCc1nc(N2CCc3ccccc3CC2)c(C#N)c(=O)n1CCO
159 to 160 | Cc1c(NC(=O)c2ccc(-c3ccc(F)cc3)cc2F)ccc2cc(CN3CCCCCC3)cnc12
145 to 147 | O=C(NCC(F)(F)F)c1cc(Cl)cc(Cl)c1
172 to 173 | CC1CC1C(=O)Nc1ccc(-n2nc(C(F)(F)F)cc2C(F)(F)F)cc1 (stereo unspecified)
143 | COC(=O)c1c(Cl)nc2cc3c(cc2c1CN1CCN(C)CC1)OCCO3

melting point [°C] | Structure (SMILES)
141 to 143 | CS(=O)(=O)Nc1ccccc1NC1=CC=NC(Nc2ccc3c(c2)CNCCS3)N1Cl (stereo unspecified)
176 to 178 | CCNC(=O)C1OC(n2cnc3c(NC(=O)Nc4ccc(S(=O)(=O)N5CCCCC5)cc4)ncnc32)C(O)C1O (stereo unspecified)
175 to 177 | CCCCOC(=O)N1CCN(C(=O)c2cc(S(=O)(=O)N(C)C)ccc2N)CC1
110 to 112 | c1cncc(CN2CCN(CCCCc3c[nH]c4ccc(-n5cnnc5)cc34)CC2)c1
68 to 70 | CCCn1cnc2c1c(=O)n(CCCCCCO)c(=O)n2C
260 to 262 | Cc1cc(C)c(Cc2nc(C)nc(O)c2C)c(C)c1
> 350 | COc1ccccc1-n1c(=O)[nH]c2c(C(N)=O)nc(-c3ccc(C(N)=O)cc3)nc21
146 to 147 | CCCC(=O)Nc1cc(Cl)c(O)c(Cl)c1
199 to 201 | COc1ccc2c(c1)CCc1cnc(N(C)c3cc(OC)c(OC)c(OC)c3)nc1-2
154 to 156 | C=CCOc1nc2cccc(C(=O)OC)c2n1Cc1ccc(-c2ccccc2-c2nnn[nH]2)cc1
193 to 195 | O=C(Nc1ccc(N2CC3CC3C2)nc1)c1cc2cc(F)ccc2n1Cc1cccc(F)c1 (stereo unspecified)
93 to 94 | O=CCCN1CCc2cc(Br)ccc2C1=O
118 | N#CC(NC(=O)C(F)(F)C(F)(F)F)c1ccc(Cl)cc1 (stereo unspecified)
94 to 96 | O=C(O)c1cc(C(c2cc(F)ccc2F)S(=O)(=O)c2ccc(Cl)cc2)c(Cl)cn1 (stereo unspecified)
147 to 150 | COC1(C[N+](=O)[O-])OC(=O)c2cc(C)c(C)cc21 (stereo unspecified)
178 to 179 | CC(=O)c1ccc(OC2SCC(O)C(O)C2O)cn1 (stereo unspecified)
208 to 210 | CCOC(=O)COc1ccccc1C(=O)Nc1ccc(O)cc1
140 to 141 | IC#CCOc1ccncc1
185 to 186 | Cc1ccccc1C(CCC(=O)O)Oc1cc(OCc2cccnc2)ccc1C(=O)c1ccccc1 (stereo unspecified)
189 to 192 | CC(=O)Cn1c(Oc2ccc(-n3c4ncccc4n4ccnc34)cc2)nc2ccccc21
52 to 54 | CC(C)(CO)CCCCCCCCCC(C)(C)CO
101 to 103 | O=C(Nc1ccc(CCO)c(CO)c1)OCc1ccccc1

Structure (SMILES) | melting point [°C]
CN1CCC(N(C)c2n[nH]c(-c3ccc(Cl)cc3)c2-c2ccncc2)CC1 | 260 to 261
CN(C)C(=CC(=O)C(F)(F)F)NCc1ccc(Cl)nc1 | 85
O=[N+]([O-])C=C1CN=C(c2ccccc2Cl)c2cc(Cl)ccc2N1 | 182 to 185
CCc1cc2c(s1)-n1c(C3CCCCC3)nnc1C(NC(=O)Nc1ccc(OC)cc1)N=C2c1ccccc1Cl (stereo unspecified) | 268 to 269
